According to US20140227318A1, “SLEEP QUALITY IMPROVING AGENT” (LION CORPORATION, priority 2011, published 2014):

What was measured:
[1] = intravenous injection or intramuscular injection; cited from earlier work
male C57BL/6 mice = test: Measurement of amount of activity of mice (sleep inducing effect); format: in vivo, mouse; conditions: oral; for CUMULATIVE AMOUNT OF ACTIVITY 6 HOURS AFTER ADMINISTRATION: n=8; for sleep inducing effect: conclusion from amount of activity
Procedure: To check the sleep inducing effect of the S-adenosylmethionine-containing yeast, the following test was performed using respective samples shown in TABLE 1.
The S-adenosylmethionine-containing yeast (the sample in Example 1) used was “AMee (trade name)” manufactured by IWATA CHEMICAL CO., LTD. “Nissin Super Camellia dry yeast (trade name)” manufactured by Nisshin Foods Inc. was used as a yeast containing no adenosylmethionine (the sample in Comparative Example 2). S-adenosylmethionine disulfate tosylate (the sample in Comparative Example 3) used was S-adenosylmethionine disulfate tosylate manufactured by CHEMaster. The sample in Comparative Example 2 and the sample in Comparative Example 3 were mixed and used as a mixture of the yeast containing no S-adenosylmethionine and S-adenosylmethionine disulfate tosylate (the sample in Comparative Example 4). S-adenosylmethionine chloride used in Comparative Example 5 (the sample in Comparative Example 5) was a reagent from
SIGMA. In each of Example 1 and Comparative Examples 2, 3, 4, and 5, a suspension of the sample in a 0.5% by mass aqueous methyl cellulose solution was prepared and used as a sample solution for an experiment. A 0.5% by mass aqueous methyl cellulose solution (the sample in Comparative Example 1) was used as a control solution.
When a sample has the function of inducing sleep, the amount of activity always decreases after administration of the sample. Therefore, the sleep inducing effect of each sample was evaluated by determining whether or not the administration of the sample solution to a mouse caused a reduction in the amount of activity.
8-Week old or 9-week old male C57BL/6 mice were purchased from Japan SLC, Inc. and acclimatized for 3 to 6 days. The amount of activity during acclimatization was used to divide the mice into administration groups. Immediately before the onset of the dark period, a sample solution or the control solution was orally administered in an amount of 10 mL/kg per body weight, and the amount of activity was measured for 24 hours after administration. Each administration group included 8 mice (n=8).
The amount of activity was measured under the following conditions. The mice were raised in individual cages, and an infrared camera was disposed above each cage. The imaging range of the infrared camera was divided into 64 sections, and the number of occurrences that the mouse crossed a section was measured. The number of occurrences was collected every 30 minutes.
In FIG. 2, “**” represents that a significant difference was found at p<0.01.

Row | Molecule | influence on sleep onset latency [1] | length of NREM sleep (stage 4) [1] | CUMULATIVE AMOUNT OF ACTIVITY 6 HOURS AFTER ADMINISTRATION (male C57BL/6 mice; 293 mg/kg (150 mg/kg in terms of S-adenosylmethionine)) | sleep inducing effect (male C57BL/6 mice) | CUMULATIVE AMOUNT OF ACTIVITY 6 HOURS AFTER ADMINISTRATION (male C57BL/6 mice; 150 mg/kg (137 mg/kg in terms of S-adenosylmethionine))
1 | S-adenosylmethionine disulfate tosylate [Comparative Example 3] | no influence | extended | 8618 NUMBER OF OCCURRENCES/6 HOURS | no sleep inducing effect | –
2 | C[S+](CC[C@H](N)C(=O)O)C[C@H]1O[C@@H](n2cnc3c(N)ncnc32)[C@H](O)[C@@H]1O.[Cl-] (stereo partly drawn) [Comparative Example 5, S-adenosylmethionine chloride] | – | – | – | no sleep inducing effect | 7068 NUMBER OF OCCURRENCES/6 HOURS
